Source: paper PMC2652713, “Molecular Blocking of CD23 Supports Its Role in the Pathogenesis of Arthritis” (PLoS ONE, 2009)

Experiments:
[1] = system: adjuvant-induced arthritis in rats; test: Adjuvant-induced arthritis (AIA) clinical score in rats; type: in vivo, rat, Female Lewis
Method: Figure 6 Inhibition of in vitro and in vivo inflammatory responses in rats by p30A peptide. (A) Rat peritoneal macrophages were activated via CD23 antigens with/without p30A, L-NIL or pCtl. Cell supernatants were collected 48 h later and nitrite levels were quantified. Values are mean±s.d. of cells from 3 different rats. (B) Cumulative clinical score/rat obtained following 50 days post-immunization in all groups. AIA rats were treated either after or before (d0) the onset of symptoms. Treatment consisted of p30A, hydrocortisone (HC, 30 mg/rat)) or pCtl (100 mg/rat). Shown are means of cumulative score/rat±s.d. from 5 (HC) or 8 rats (other conditions). (C) Evolution of arthritis severity scores of adjuvant-induced arthritis (AIA) in rats treated with intracutaneous p30A or pCtl (100 mg/rat) or hydrocortisone (after the onset of clinical signs as illustrated by arrows (means from 8 rats, s.e.m.<20%). (D) Histopathologic analysis confirm p30A ability to decrease all components of AIA lesions: pannus formation and inflammation of the synovium (P), deformity of joint and bones (asterix), bone remodeling and destruction (arrowhead), bone neoformation (arrows) and cartilage destruction.
All animal procedures were performed in strict accordance with the guidelines issued by the European Economic Community “86/609”. Female Lewis rats (Janvier, Le Genest St Isle, France) were housed under standard laboratory conditions with free access to food and water. The temperature was kept at 22±2°C and a 12 hour light/dark schedule was maintained.
Adjuvant arthritis was induced in six week-old animals by subcutaneous injection at the base of the tail of 300 µl containing 1.8 mg of inactivated Mycobacterium butyricum (Difco Laboratories, Detroit, MI) diluted in emulsion of 8 ml Vaseline, 1 ml polysorbate 80, and 1 ml PBS (Phosphate Buffer Saline, Eurobio). Rats were boosted one week later following the same procedure. Observation was conducted for up to 50 days following immunization for clinical signs of arthritis. Rats were divided in different groups of 8 rats. Groups were treated with five injections (every 2 days) of either p30A (10, 50 or 100 mg in a PBS solution), pCtl, hydrocortisone (Sigma Aldrich) or PBS solution. Injections were initiated two days after the appearance of first arthritic symptoms (therapeutic) or on the first day of immunization (preventive). Evaluation of AIA severity was performed by two independent observers who where not aware of the study protocol. The severity of AIA in each paw was quantified daily using an ordinal clinical score measurement from 0 to 4 as follows: no signs of inflammation ( = 0); swelling alone (>2 fold paw diameter) ( = 1) or swelling/immobility ( = 2) of one paw; swelling ( = 3) or swelling/immobility ( = 4) of two paws. Weight evolution of rats was measured daily. Rats were sacrificed 50 days after AIA induction. Peritoneal macrophages were collected and incubated in culture medium alone for 48 h. Quantification of TNF-α and IL-1β in rat cell supernatants was performed using appropriate ELISA kits and according to manufacturer's recommendations (Biosource, Montrouge, France).

CD23 = CD23 western blot on CD23+ B-cell line extract; type: binding, human; details: CD23+ B cell line extract (50 µg protein), blot pre-incubated with p30A 10 µg/ml (methods: 10, 20 and 40 µg/ml, 2 h)
Method: Figure 1 Specific blockade of CD23 reactivity by p30A. Flow cytometry analysis showing the inhibition of (A) anti-CD23-FITC (20 µg/ml) or (B) IgE (10 µg/ml)/anti-IgE-FITC (1 µg/ml) binding to CD23^+ human PBL-derived macrophages (red lines) or following their pre-incubation with p30A peptides (10 µg/ml) (blue lines). (C) CD23 western blot was performed on total protein extract from à CD23^+ B-cell line. The detection with CD23-McAb followed the pre-incubation of the blot with or without p30A (10 µg/ml). Similar protein quantity (50 µg) was used for each western blot condition.
Total cellular proteins were isolated from CD23^+, ADAM B-cell line in cell lysis buffer (10 mM Tris pH 8.0, 150 mM NaCl, 5 mM EDTA, 1% Triton X-100, 0.05% SDS, 10 mM Sodium Fluoride, 1 mM Sodium Orthovanadate, 5 µM Molibdic Acid) and a mixture of protease inhibitors (all from Sigma Aldrich, Saint Quentin Fallavier, France). Protein concentration was determined using the Bradford assay (Bio Rad, Hemel Hempstead, UK). Protein samples (50 µg total protein) were subjected to SDS-PAGE using a 12% resolving gel. […] Immunoreactive bands (CD23 and Bcl2) were detected using the FluorChem 8800 (Alpha Innotech, San Leandro, USA) and semi-quantified by densitometry using AlphaEase FC (Alpha Innotech).

## FHENWPS [p30A]
[1]; AIA rats, 50 days post-immunization, five intracutaneous doses every two days, 8 rats, p<0,0001
  cumulative clinical score vs non-treated rats: significantly improved the clinical course of AIA rats
[1]; AIA rats, hydrocortisone 30 mg/rat
  decrease of arthritic scores compared with hydrocortisone: more efficient than hydrocortisone in decreasing arthritic scores
[1]; AIA rats, p30A 10, 50 or 100 mg, five injections every 2 days
  arthritic signs, dose-dependence: decreased arthritic signs in rats in a dose-dependent manner
[1]; AIA rats, therapeutic or p30A-d0, p<0.0002
  effectiveness after disease onset or for prevention: effective either after disease onset or for the prevention
[1]; p30A administered prior to disease induction
  prevention of severe clinical signs: prevented the development of severe clinical signs in rats
[1]; rat model of arthritis
  clinical scores and bone destruction: ameliorates clinical scores and prevent bone destruction in a dose dependent manner
[1]; rat model of chronic arthritis, indirectly supports stability of p30A in vivo
  duration of dose-dependent effect: > one month
CD23
  block of detection of CD23 protein by CD23-McAb: block
